Tested on: ovariectomized SD female rats
Experiment: In vivo anti-osteoporosis assay, digital medical image analysis of femurs (DXA / Micro-CT)
Set-up: species or system rat
Conditions: femur, OVX SD female rats, oral, 3 months, L 50 mg/kg, E2 estrogen 50 μg/kg, mean ± S.E.M., n=6
Experimental: In this example, an in vivo assay for anti-osteoporosis activity of the Pennisetum extract was carried out on ovariectomized SD female rats in an animal feeding experiment mode, and the analysis of the femur bone mineral density and trabecular bone measurement was performed to confirm the pharmacological activity. The experimental method is as follows: (1) Test substance and control substances: The test group (L) uses the Pennisetum alcohol extract prepared in the foregoing Example 1 as the test substance. The blank control group (Control) and the ovariectomized group (OVX) were administered with ethanol as the control substance. The positive control group (E2) was administered with estrogen as the control substance. (2) Test animals: Test animals (including the test group, ovariectomized group and positive control group) were ovariectomized SD female rats, and the test on animals simulating the menopausal mode was started 2 weeks after oophorectomy. The blank control group was SD female rats without oophorectomy (only subjected to sham surgery). (3) Animal feeding management: The feeding environment was temperature 20° C. to 25° C.; humidity 65% to 80%; and lighting time 12 hours (monitoring environment every day). During the acclimation and test period, every 4 female rats were housed in an autoclaved plastic rearing cage (46 cm×25 cm×20 cm). Drinking water was treated with a reverse osmosis pure water machine, and then charged in a high temperature autoclaved plastic bottle to give the test animals for free drinking. (4) Acclimation: Ovariectomized SD female rats delivered by BioLASCO Co., Ltd. were acclimated for one week after entering the laboratory. During this period, clinical symptoms were observed every day, and healthy rats with normal weight gain were confirmed for the test. (5) Administration of test substance and control substances: After one week of acclimation, the experimental rats were orally administered with different doses of Pennisetum alcohol extract, ethanol or estrogen for 3 consecutive months, and then all the experimental rats were fasted one night before sacrifice to simulate the clinically applicable route of administration for the human body. During the 3 consecutive months of testing, according to the weight of the day before the administration, the test group was administered with a solution of the Pennisetum alcohol extract (10 mL/kg), which was prepared by dissolving 50 mg of Pennisetum alcohol extract in 10.0 mL of 10% ethanol; the blank control group and the ovariectomized group were administered with 10% ethanol (10.0 mL/kg); and the positive control group was administered with estrogen, which was dissolved in 10% ethanol (10.0 mL/kg). (6) The animal grouping was performed according to the body weight in an S-type order after the animals gained weight. The bone density (mass/volume) of the appropriate bone was measured by a dual energy X-ray absorptiometer (DXA) or micro-computerized tomography (Micro-CT, μ-CT; also used to measure the trabecular number). During the measurement, the DXA with two different energies was used to scan the inspection site, then the X-rays passing through the tested site was received by a scintillation detector, and then a computer analyzed the data to calculate the bone quality of the tested site. The records of the percentage of bone mass (bone volume/tissue volume), trabecular separation/spacing (Tb.Sp), trabecular number (Tb.N) and bone mineral density (BMD) in each group are shown in Table 5. It is represented by mean±standard error (S.E.M.) (n=6), and a, b, c, and d in the table represent statistical differences between the groups. The experimental data were statistically analyzed by one-way ANOVA. The statistical method of correlation index changes between the groups was statistically analyzed by Duncan test. […]

[1] = listed as positive control group

Substance: estrogen [E2]
- Bone Mineral Density: 0.619 mg/cm^2
- Percentage of Bone Mass (bone volume/tissue volume): 10.512%
- Trabecular Number (Tb.N): 0.908 ± 1/mm
- Trabecular Separation/Spacing (Tb.Sp): 1.103 mm
- Percentage of Bone Mass (bone volume/tissue volume) [1]: 10.512±1.071%
- Trabecular Number (Tb.N) [1]: 0.908±0.085 1/mm

Source: patent publication US11033599B2, “Pennisetum extract, process for manufacturing the same and uses thereof” (METAL INDUSTRIES RESEARCH & DEVELOPMENT CENTRE, priority 2017, dated 2021)
